Experiments:
Format in all cases: in vivo
Design in all cases: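 grade 0 to 5 of growth suppression where 5 is 90% or more and 0 below 10%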
Amaranthus viridis L. [1] = test: Herbicidal effects in upland field foliar treatment (Test Example 3); settings: 1000 g active ingredient per hectare, 14th day after treatment, criteria of Table 138
Procedure, shortened: (§1)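 Weeds were sown in upland field soil and grown two weeks in a greenhouse before a foliar spray over the whole plant. Wettable powder was diluted in water and applied at 1000 L/ha, delivering 1000 g active ingredient/ha. Herbicidal effect was scored against set rating criteria 14 days after treatment.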

[2] = system: Abutilon theophrasti medicus; test: as above; settings: 1000 g active ingredient per hectare, 14th day after treatment, criteria of Table 138
Procedure, shortened: as §1

[3] = system: Echinochloa crus-galli (L.) P. Beauv. var. crus-galli; test: as above; settings: 1000 g active ingredient per hectare, 14th day after treatment, criteria of Table 138
Procedure, shortened: as §1

Amaranthus viridis L. [4] = test: Herbicidal effects in upland field soil treatment (Test Example 2); settings: 1000 g active ingredient per hectare, 21st day after treatment, criteria of Table 138
Procedure, shortened: (§2)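 Pre-emergence soil application: seeds sown in upland field soil, covered, then wettable powder diluted in water sprayed on the soil surface at 1000 g active ingredient/ha in 1000 L/ha. Plants grown in greenhouse; herbicidal effect scored on a rating scale 21 days after treatment.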

[5] = system: Abutilon theophrasti medicus; test: as above; settings: 1000 g active ingredient per hectare, 21st day after treatment, criteria of Table 138
Procedure, shortened: as §2

[6] = system: Echinochloa oryzicola Vasing; test: Herbicidal effects in paddy field soil treatment (Test Example 1); settings: paddy field soil treatment; 1000 g of the active ingredient per hectare; wettable powder added dropwise on water surface; 21st day after treatment
Procedure, shortened: (§3)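 Weed seeds were sown into puddled, leveled paddy soil in pots and flooded to 3 cm water depth. One day later the diluted wettable powder formulation was dropped onto the water surface at 1000 g active ingredient per hectare. Herbicidal effect was scored on day 21 after greenhouse growth.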

[7] = system: Monochoria vaginalis (Burm. f.) Presl var. plantaginea (Roxb.) Solms-Laub.; test: as above; settings: paddy field soil treatment; 1000 g of the active ingredient per hectare; wettable powder added dropwise on water surface; 21st day after treatment
Procedure, shortened: as §3

[8] = system: Scirpus juncoides Roxb. var. ohwianus. T. Koyama; test: as above; settings: paddy field soil treatment; 1000 g of the active ingredient per hectare; wettable powder added dropwise on water surface; 21st day after treatment
Procedure, shortened: as §3

Compound	herbicidal effect (index) on Amaranthus viridis L. (Amaranthus viridis L. [1])	herbicidal effect (index) on Abutilon theophrasti medicus [2]	herbicidal effect (index) on Echinochloa crus-galli (L.) P. Beauv. var. crus-galli [3]	herbicidal effect (index) on Amaranthus viridis L. (Amaranthus viridis L. [4])	herbicidal effect (index) on Abutilon theophrasti medicus [5]	Herbicidal effects index, Echinochloa oryzicola Vasing [6]	Herbicidal effects index, Monochoria vaginalis (Burm. f.) Presl var. plantaginea (Roxb.) Solms-Laub. [7]	Herbicidal effects index, Scirpus juncoides Roxb. var. ohwianus. T. Koyama [8]
O=C1CCCC(O)=C1C(=O)c1nc2ccccc2n(C2=NOCC2)c1=O [I-131]	5	5	5	5	5	5	5	5
O=C1CCCC(O)=C1C(=O)c1nc2ccccc2n(-c2ccsc2)c1=O [I-139]	5	5	4	5	5	5	5	5
O=C1CCCC(O)=C1C(=O)c1nc2ccccc2n(-c2ccon2)c1=O [I-144]	5	5	5	5	5	5	5	5
Cc1cc(-n2c(=O)c(C(=O)C3=C(O)CCCC3=O)nc3ccccc32)no1 [I-145]	5	5	5	5	5	5	5	5
Cc1cc(-n2c(=O)c(C(=O)C3=C(O)C4CCC(C4)C3=O)nc3ccccc32)no1 (stereo not drawn) [I-148]	5	5	5	5	5	5	5	5
Cc1cc(-n2c(=O)c(C(=O)C3=C(O)C(C)(C)C(=O)C(C)(C)C3=O)nc3ccccc32)no1 [I-149]	5	5	5	5	5	5	5	4
Cc1cc(-n2c(=O)c(C(=O)C3=C(O)CCCC3=O)nc3ccccc32)sn1 [I-156]	5	5	5	5	5	5	5	5
Cn1nc(C(F)(F)F)cc1-n1c(=O)c(C(=O)C2=C(O)CCCC2=O)nc2ccccc21 [I-158]	5	5	5	5	5	5	5	5
O=C1CCCC(O)=C1C(=O)c1nc2ccccc2n(-c2nccs2)c1=O [I-159]	5	5	4	5	5	5	5	5

Reference: patent US8389523B2, “Substituted quinoxaline and an agrochemical composition thereof” (Kumiai Chemical Industry Co., Ltd., priority 2007, dated 2013)
